This is an account of results in US5061695A, “Antitumor substance BE-12406” (Banyu Pharmaceutical Co., Ltd., priority 1989, dated 1991).

For one data set, the system named is P388/V cells. The experiment in a line: In vitro growth inhibition of P388/V cells (vincristine-resistant). It counts as cell-based. The conditions noted are these: Mus musculus, 72 hours, 37° C., read-out: IC50, 50% inhibition of P388/V cell growth. As to the method: (§1) In vitro activity tests were performed for evaluating the inhibitory activities of the antitumor substances BE-12406A and B against mouse tumor cells. In the in vitro antitumor assay using P388 tumor cells, the antitumor substance BE-12406A or B was first dissolved in dimethyl sulfoxide and the solution was serially diluted with a cell culture medium containing 20% of dimethyl sulfoxide (20% DMSO-RPMI-1640 medium). Then, 2 μl of each dilution was added to 200 μl of a cell culture medium (10% fetal calf serum-RPMI-1640 medium) containing 2.5×10^4 tumor cells and the mixture was incubated under 5% CO2 at 37° C. for 72 hours. The viable cells were then counted with a Coulter counter. The result was compared with the control data. […] The corresponding values for P388/V cells were 0.2 and 7 μM, respectively.
(§2) The P388/S tumor cell line is one of the common mouse leukemia cell lines, and the P388/V line is a strain of P388 leukemia cell which has acquired resistance to the anticancer agent vincristine.

Another data set concerns P388/S tumor cells. As to the kind of experiment: In vitro growth inhibition of P388/S tumor cells (Coulter counter). It counts as cell-based. The conditions noted are these: Mus musculus, 72 hours, 37° C., read-out: IC50, concentration causing 50% inhibition of P388/S cell growth. As to the method: as §1, §2
The subject of the next data set is HeLa cells. As to the kind of experiment: In vitro growth inhibition of HeLa cells (Crystal Violet). The format is cell-based, human. The conditions noted are these: 72 hours, 37° C.; for IC50: Homo sapiens, HeLa, read-out: IC50, 50% inhibitory concentration, HeLa. The protocol: (§3) Then, the in vitro inhibitory activity of BE-12406A and B was assayed using HeLa cells, which are human cancer cells, and L1210 cells which are mouse leukemia cells.
Thus, antitumor substance BE-12406A or B in a concentration series was added to 200 μl of a cell culture medium (10% fetal calf serum-MEM medium) containing 4×10^3 HeLa cells and the mixture was incubated under 5% CO2 at 37° C. for 72 hours. The surviving adherent cells were fixed with 10% formalin and stained with 0.01% Crystal Violet. Using a 1:1 (v/v) mixture of ethylene glycol and ethanol, the dye was extracted from the stained cells and the absorbance at 590 nm was measured and compared with the control.

The subject of a further data set is S-180 ascites tumor. The experiment in a line: Antitumor effect on transplanted mouse S-180 ascites tumor (survival). The conditions noted are these: i.p.; for MST (mean survival time): days 1, 4, 7, 9 and 13, female ICR mice; for MST (% T/C), (treated MST/control MST) × 100: ≥ 125 = marked antitumor effect. The format is in vivo. As to the method: In this assay using mice, 10^6 (lethal dose) S-180 tumor cells pre mouse were intrapetitoneally administered and the 5% DMSO-PBS (phosphate Buffered Saline solution of BE-12406A in a dilution series (1:2, 1:4, 1:8, etc.) was intraperitoneally administered. The results are summarized in Table 3.
^1 Inoculum: 10^6 ascites tumor cells, intraperitoneal
^2 Host: Female ICR mice
^3 Treatment schedule: BE12406A was administered intraperitoneally on
^4 MST: Mean survival time (in days)
^5 % T/C: (treated MST/control MST) × 100
^6 Criteria: When % T/C ≥ 125, the test compound was considere
to produce a marked antitumor effect at the particular concentration.

In data set [1] the test system is human colon cancer cell line DLD-1. The experiment in a line: Cancer cell growth inhibition, DLD-1 (sulforhodamine B). The format is cell-based. The conditions noted are these: DLD-1, 72 hours, 37° C. As to the method: (§4) For the assessment of the inhibitory activity of BE-12406A, B, X1 and X2 against human cancer cells, in vitro tests were carried out. As the test cells, human colon cancer cell lines DLD-1 and LS180 and human lung cancer cell line PC13 were used. The cell culture medium was 10% fetal calf serum-RPMI medium for DLD-1 and LS180, and 10% fetal calf serum-RPMI-1640 medium for PC13. First, each of BE-12406A, B, X1 and X2 was dissolved in dimethyl sulfoxide and the solution was serially diluted with PBS (phosphate-buffered saline) to prepare test solutions. The cancer cell growth inhibition assay was performed as follows. Thus, 100 μl of a cell culture medium containing 3×10^3 cancer cells was distributed into a 96-well microtiter plate and incubated under 5% CO2 at 37° C. for 24 hours. Then, 11 μl of the above test solutions were added and the incubation was further carried out under 5% CO2 at 37° C. for an additional 72 hours. The cells were then fixed with 50% trichloroacetic acid and stained with 0.4% sulforhodamine B. From the stained cells, the dye was extracted with 10 mM Tris solution and the absorbance at 540 nm was measured and compared with the control.

Data set [2] can be described thus: Acute toxicity in mice, single intraperitoneal dosing. It counts as in vivo, mouse (ICR. The conditions noted are these: 100 mg/kg, ICR female mice.
Data set [3] has as its system human colon cancer cell line LS180. The experiment in a line: Cancer cell growth inhibition, LS180 (sulforhodamine B). It counts as cell-based. The conditions noted are these: LS180, 72 hours, 37° C.; for IC50: Homo sapiens. The protocol: as §4
The subject of data set [4] is human lung cancer cell line PC13. The experiment in a line: Cancer cell growth inhibition, PC13 (sulforhodamine B). It counts as cell-based. The conditions noted are these: PC-13, PC13, 72 hours, 37° C. As to the method: as §4
In a further data set the test system is human cancer cells. The experiment in a line: In vitro growth inhibition of human cancer cells DLD-1, LS180 and PC13 (overall statement). The conditions noted are these: DLD-1, LS180, PC13; 72 hours, 37° C. The format is cell-based. As to the method:
as §4

The subject of a further data set is P388/A cells. The experiment in a line: In vitro growth inhibition of P388/A cells (adriamycin-resistant). It counts as cell-based, mouse. The conditions noted are these: for IC50: Mus musculus, P388/A (adriamycin-resistant), read-out: IC50, 50% inhibitory concentration, P388/A; for inhibition of P388/A cells (in words): adriamycin-resistant. The protocol:
as §1

A further data set concerns L1210 cells. The experiment in a line: In vitro growth inhibition of L1210 cells (Coulter counter). The format is cell-based, mouse. The conditions noted are these: 37° C.; for growth inhibition of L1210 cells (in words): 72 hours; for IC50: Mus musculus, L1210, 72 hours, read-out: IC50, 50% inhibitory concentration, L1210. As to the method:
as §3
The growth inhibition assay using L1210 cells was performed as follows. Thus, antitumor substance BE-12406A or B in a concentration series was added to 200 μl of a cell culture medium (10% fetal calf serum-RPMI-1640) containing 4.5×10^3 L1210 cells and the mixture was incubated under 5% CO2 at 37° C. for 72 hours. The surviving suspended cells were counted with a Coulter counter and the result was compared with the control.

Another data set relates to P388 tumor cells. As to the kind of experiment: In vitro growth inhibition of P388 tumor cells (overall statement). The conditions noted are these: 72 hours, 37° C. It counts as cell-based, mouse. As to the method:
as §1

Another data set in a line: Solubility. The format is physicochemical. The conditions noted are these: for Solubility in organic solvents: dimethyl sulfoxide and other organic solvents.

`COc1cc(C)cc2c(=O)oc3c4cccc(O)c4c(OC4OC(C)C(O)C(O)C4O)cc3c12` (centres unmarked) [BE-12406A]: the IC50 was determined as 0.2 µM in the data set with P388/V cells; 0.8 µM in the data set on P388/S tumor cells; 11 µM with HeLa cells; 18.4 µM in data set [1]; 12 µM in [3]; 20.7 µM in data set [4]. Further, the IC50 with P388/A cells is 0.9 µM; with L1210 cells, 9.6 µM. The “growth inhibition of HeLa cells (in words)” value with HeLa cells is on record as “inhibited growth”. Moreover, the “MST (mean survival time)” value in the data set with S-180 ascites tumor (2.5 mg/kg/injection) was 12.0 days; in the data set on S-180 ascites tumor (5 mg/kg/injection) it was 13.0 days; in the data set with S-180 ascites tumor (10 mg/kg/injection) it was 15.0 days; in the data set on S-180 ascites tumor (20 mg/kg/injection), more than 30.0 days; in the data set with S-180 ascites tumor (40 mg/kg/injection) it was more than 30.0 days. Further, the “MST (% T/C), (treated MST/control MST) × 100” value in the data set on S-180 ascites tumor (2.5 mg/kg/injection) is 120 % T/C; in the data set with S-180 ascites tumor (5 mg/kg/injection), 130 % T/C; with S-180 ascites tumor (10 mg/kg/injection) it was 150 % T/C; with S-180 ascites tumor (20 mg/kg/injection), more than 300 % T/C; in the data set on S-180 ascites tumor (40 mg/kg/injection), more than 300 % T/C. In addition, the “antitumor effect on transplanted S-180 tumor cells (in words)” value with S-180 ascites tumor (mice) is “showed an antitumor effect”. The “acute toxicity, death on day 5” value in [2] is on record as “no death was found”. The “inhibition of proliferation of LS180 (in words)” value in data set [3] was “markedly inhibited proliferation”. Moreover, the “growth inhibition of human cancer cells (in words)” value with human cancer cells was “inhibit the growth”. For the same molecule, in the data set on P388/A cells, the “inhibition of P388/A cells (in words)” value is recorded as “inhibited”. The “growth inhibition of L1210 cells (in words)” value with L1210 cells is reported as “inhibited growth”. For the same molecule, the “growth inhibition of P388 tumor cells (in words)” value in the data set on P388 tumor cells is given as “markedly inhibit the growth”. For the same molecule, in the data set “Solubility” (tetrahydrofuran), the “Solubility in organic solvents” value is given as “readily soluble”. Also, in the data set “Solubility”, the Solubility in water entry is on record as “Sparingly soluble”.

`Cc1cc(O)c2c(c1)c(=O)oc1c3cccc(O)c3c(OC3OC(C)C(O)C(O)C3O)cc12` (centres unmarked) [BE-12406B]: the IC50 in the data set on P388/V cells was 7 µM; with P388/S tumor cells, 7 µM; in the data set on HeLa cells it was 20 µM; in data set [1], more than 220 µM; in data set [3] it was 88.1 µM; in [4] it was 161 µM. Also, the IC50 is 11 µM in the data set with P388/A cells and 60 µM with L1210 cells. In addition, the “growth inhibition of HeLa cells (in words)” value in the data set on HeLa cells is listed as “inhibited growth”. Besides, in the data set with human cancer cells, the “growth inhibition of human cancer cells (in words)” value was “inhibit the growth”. Besides, the “inhibition of P388/A cells (in words)” value in the data set with P388/A cells was “inhibited”. Moreover, in the data set with L1210 cells, the “growth inhibition of L1210 cells (in words)” value is “inhibited growth”. Further, the “growth inhibition of P388 tumor cells (in words)” value with P388 tumor cells is reported as “markedly inhibit the growth”. Further, the “Solubility in organic solvents” value in “Solubility” (tetrahydrofuran) is recorded as “readily soluble”. For the same molecule, the Solubility in water entry in “Solubility” is given as “Sparingly soluble”.

For `COc1cc(C)cc2c(=O)oc3c4cccc(OC5OC(C)C(O)C(O)C5O)c4c(O)cc3c12` (centres unmarked) [BE-12406X1], the values for the IC50 in data set [1], in data set [3] and in data set [4] were 91.9 µM, 36.3 µM and 115 µM, respectively. Moreover, in [3], the “inhibition of proliferation of LS180 (in words)” value is on record as “markedly inhibited proliferation”. Besides, the “growth inhibition of human cancer cells (in words)” value in the data set with human cancer cells is reported as “inhibit the growth”. Further, in the data set “Solubility” (dimethylformamide), the “Solubility in organic solvents” value was “soluble”. Moreover, the Solubility in water entry in “Solubility” was “Sparingly soluble”.

On to `COc1cc(C)cc2c(=O)oc3c4cccc(O)c4c(O)cc3c12` [BE-12406X2], for which the IC50 in data set [1] was more than 311 µM; in data set [3], 311 µM; in data set [4] it was more than 311 µM. Further, the “growth inhibition of human cancer cells (in words)” value with human cancer cells was “inhibit the growth”. Besides, the “Solubility in organic solvents” value in “Solubility” (dimethylformamide) is recorded as “soluble”. In addition, the Solubility in water entry in the data set “Solubility” was “Sparingly soluble”.
